According to US8822447B2, “Indazole compounds useful as ketohexokinase inhibitors” (Janssen Pharmaceutica NV, priority 2010, dated 2014):
Counter-ions that a name gives are not always drawn.

The molecules below were run against KHK (Homo sapiens (Human), UniProt P50053) (assay: In Vitro KHK Enzyme Assay (HTMS)). Details: 200 μM fructose, 100 μM ATP, 2 nM KHK, 60 min at 25° C.; Fructose-1-P detected by high throughput mass spectrometry.
Type: biochemical
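Note: primary screen measuring inhibition of KHK-catalysed conversion of D-fructose into fructose 1-phosphate.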
Procedure: An enzymatic assay was developed to measure KHK-mediated conversion of D-fructose to Fructose-1-P (F-1-P) using High Throughput Mass Spectroscopy (HTMS) as a means of product detection. This assay served as a primary screen to evaluate the ability to inhibit KHK enzyme activity and it has been adapted to high throughput mass spectrometry (HTMS, BioTrove RapidFire™) format for higher throughput.
The compounds to be tested were dosed in 12-points concentration from 511 μM to 0.5 μM. […] The assay was carried out in 384-well plate format.

Sequence of KHK (P50053 whole entry): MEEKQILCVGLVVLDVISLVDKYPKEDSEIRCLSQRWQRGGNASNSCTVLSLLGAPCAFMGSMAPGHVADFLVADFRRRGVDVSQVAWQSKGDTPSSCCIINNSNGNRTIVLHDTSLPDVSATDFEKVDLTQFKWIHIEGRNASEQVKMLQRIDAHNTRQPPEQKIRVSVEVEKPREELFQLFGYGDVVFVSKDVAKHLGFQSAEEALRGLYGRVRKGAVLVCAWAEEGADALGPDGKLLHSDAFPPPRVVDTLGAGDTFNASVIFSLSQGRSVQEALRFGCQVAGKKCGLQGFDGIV

Row | SMILES | IC50
1 | CSc1nn(-c2ccc(N)cc2)c2cc(C(=O)NC3CCNCC3)ccc12 [Compound 111, 1-(4-Amino-phenyl)-3-methylsulfanyl-1H-indazole-6-carboxylic acid piperidin-4-ylamide] | 2.61 µM
2 | CSc1nn(-c2ccccc2)c2cc(NC(=O)C3(c4ccccc4)CCNCC3)ccc12 [Compound 172, 4-Phenyl-piperidine-4-carboxylic acid (3-methylsulfanyl-1-phenyl-1H-indazol-6-yl)-amide] | 2.15 µM
3 | CCN1CCN(c2ccc3c(C)nn(-c4ccccc4)c3c2)CC1 [Compound 69, 6-(4-Ethylpiperazin-1-yl)-3-methyl-1-phenyl-1H-indazole 2,2,2-trifluoroacetic acid salt] | 14.2 µM
4 | CSc1nn(-c2ccc([N+](=O)[O-])cc2)c2cc(C3=CCN(C(=O)CN)CC3)ccc12 [Compound 144, 2-Amino-1-{4-[3-methylsulfanyl-1-(4-nitro-phenyl)-1H-indazol-6-yl]-3,6-dihydro-2H-pyridin-1-yl}-ethanone] | > 10 µM
5 | CSc1nn(-c2ccccc2)c2cc(N3CC4CC3CN4)ccc12 (stereo not drawn) [Compound 10, 2-(3-(methylthio)-1-phenyl-1H-indazol-6-yl)-2,5-diaza-bicyclo[2.2.1]heptane hydrochloride] | 0.71 µM
6 | Cc1nn(-c2ccccc2)c2cc(N3CCN(C4CCNCC4)CC3)ccc12 [Compound 64, 3-Methyl-1-phenyl-6-(4-(piperidin-4-yl)piperazin-1-yl)-1H-indazole hydrochloride] | 9.06 µM
7 | CSc1nn(-c2ccccc2)c2cc(NCCC3CCNCC3)ccc12 [Compound 166, (3-Methylsulfanyl-1-phenyl-1H-indazol-6-yl)-(2-piperidin-4-yl-ethyl)-amine] | 0.6 µM
8 | Cc1nn(-c2ccccc2)c2cc(N3CCN(C4CCNCC4)C3=O)ccc12 [Compound 67, 1-(3-Methyl-1-phenyl-1H-indazol-6-yl)-3-(piperidin-4-yl)imidazolidin-2-one hydrochloride] | 1.23 µM
9 | CSc1nn(-c2ccccc2)c2cc(N3CCN(c4ccccn4)CC3)ccc12 [Compound 24, 3-(Methylthio)-1-phenyl-6-(4-(pyridin-2-yl)piperazin-1-yl)-1H-indazole] | 1.56 µM
10 | CCc1nn(-c2ccccc2)c2nc(N3CCN(c4cccnc4)CC3)ncc12 [Compound 83, 3-Ethyl-1-phenyl-6-(4-(pyridin-3-yl)piperazin-1-yl)-1H-pyrazolo[3,4-d]pyrimidine trifluoroacetic acid] | > 30 µM
11 | CSc1nn(-c2ccc(N)cc2)c2cc(C3=CCNCC3)ccc12 [Compound 116, 4-[3-Methylsulfanyl-6-(1,2,3,6-tetrahydro-pyridin-4-yl)-indazol-1-yl]-phenylamine] | 0.16 µM
12 | Cc1nn(-c2ccccc2)c2cc(-c3ccc(N4CCNCC4)cc3)ccc12 [Compound 58, 3-Methyl-1-phenyl-6-(4-piperazin-1-yl-phenyl)-1H-indazole hydrochloride] | 7.5 µM
13 | COc1nn(-c2ccccc2)c2cc(-c3ccc(N4CCNCC4)cc3)ccc12 [Compound 78, 3-Methoxy-1-phenyl-6-(4-(piperazin-1-yl)phenyl)-1H-indazole hydrochloride] | 4.42 µM
14 | CCN(CC1CCNCC1)c1ccc2c(SC)nn(-c3ccccc3)c2c1 [Compound 108, Ethyl-(3-methylsulfanyl-1-phenyl-1H-indazol-6-yl)-piperidin-4-ylmethyl-amine] | 0.89 µM
15 | CCc1nn(-c2ccccc2)c2nc(-c3ccc(NC4CCNCC4)cc3)cc(O)c12 [Compound 100, 3-Ethyl-1-phenyl-6-[4-(piperidin-4-ylamino)-phenyl]-1H-pyrazolo[3,4-b]pyridin-4-ol] | 1.72 µM
16 | CSc1nn(-c2ccccc2)c2cc(N3CCN(C4CCNCC4)C3=O)ccc12 [Compound 26, 1-(3-(Methylthio)-1-phenyl-1H-indazol-6-yl)-3-(piperidin-4-yl)imidazolidin-2-one hydrochloride] | 1.47 µM
17 | CSc1nn(-c2ccccc2)c2cc(C=Cc3ccccn3)ccc12 [Compound 155, 3-Methylsulfanyl-1-phenyl-6-(2-pyridin-2-yl-vinyl)-1H-indazole] | > 10 µM
18 | CCc1nn(-c2ccccc2)c2cc(N3CCNC(C)C3)ccc12 (stereo not drawn) [Compound 56, 3-Ethyl-6-(3-methylpiperazin-1-yl)-1-phenyl-1H-indazole] | 0.86 µM
19 | Cc1nn(-c2ccccc2)c2nc(C3CCCN(C4CNC4)C3)nc(O)c12 (stereo not drawn) [Compound 85, 6-(1-Azetidin-3-yl-piperidin-3-yl)-3-methyl-1-phenyl-1H-pyrazolo[3,4-d]pyrimidin-4-ol] | 7.45 µM

Further molecules by falling IC50, results first:

Row | IC50 | SMILES
20 | 30 µM | CCc1nn(-c2ccccc2)c2nc(C3CCN(C(=O)C4CCNCC4)CC3)nc(O)c12 [Compound 96, [4-(3-Ethyl-4-hydroxy-1-phenyl-1H-pyrazolo[3,4-d]pyrimidin-6-yl)-piperidin-1-yl]-piperidin-4-yl-methanone hydrochloride]
21 | 30 µM | COc1nn(-c2ccccc2)c2cc(N3CCN(C4CCNCC4)C3=O)ccc12 [Compound 81, 1-(3-Methoxy-1-phenyl-1H-indazol-6-yl)-3-(piperidin-4-yl)imidazolidin-2-one hydrochloride]
22 | 8.1 µM | COc1nn(-c2ccccc2)c2cc(N3CCN(c4ccncc4)CC3)ccc12 [Compound 77, 3-Methoxy-1-phenyl-6-(4-(pyridin-4-yl)piperazin-1-yl)-1H-indazole hydrochloride]
23 | 5.87 µM | CCc1nn(-c2ccccc2)c2cc(-c3ccc(OC4CCNCC4)cc3)ccc12 [Compound 37, 3-Ethyl-1-phenyl-6-(4-(piperidin-4-yloxy)phenyl)-1H-indazole hydrochloride]
24 | 5.34 µM | CSc1nn(-c2ccccc2)c2cc(N3CCN(C(=O)C4CCCN4)CC3)ccc12 (stereo not drawn) [Compound 33, (4-(3-(Methylthio)-1-phenyl-1H-indazol-6-yl)piperazin-1-yl)(pyrrolidin-2-yl)methanone hydrochloride]
25 | 3.04 µM | CSc1nn(-c2ccccc2)c2cc(N3CCN(CC4CCCNC4)C3=O)ccc12 (stereo not drawn) [Compound 28, 1-(3-(Methylthio)-1-phenyl-1H-indazol-6-yl)-3-(piperidin-3-ylmethyl)imidazolidin-2-one hydrochloride]
26 | 0.86 µM | CSc1nn(-c2ccccc2)c2cc(NC(=O)CC3CCCCN3)ccc12 (stereo not drawn) [Compound 3, N-(3-(Methylthio)-1-phenyl-1H-indazol-6-yl)-2-(piperidin-2-yl)acetamide hydrochloride]
27 | 0.77 µM | CSc1nn(-c2ccccc2)c2cc(NC3CCNCC3)ccc12 [Compound 109, (3-Methylsulfanyl-1-phenyl-1H-indazol-6-yl)-piperidin-4-yl-amine]
28 | 0.56 µM | CSc1nn(-c2ccccc2)c2cc(N3CCC(N4CCNCC4)C3)ccc12 (stereo not drawn) [Compound 19, 3-(Methylthio)-1-phenyl-6-(3-(piperazin-1-yl)pyrrolidin-1-yl)-1H-indazole hydrochloride]
29 | 0.3 µM | CCc1nn(-c2ccccc2)c2nc(-c3ccc(N4CC(C)NC(C)C4)cc3)cc(OC)c12 (stereo not drawn) [Compound 98, 6-[4-(3,5-Dimethyl-piperazin-1-yl)-phenyl]-3-ethyl-4-methoxy-1-phenyl-1H-pyrazolo[3,4-b]pyridine]
30 | 0.22 µM | CSc1nn(-c2ccccc2)c2cc(NC(=O)C3CNC3)ccc12 [Compound 2, N-(3-(Methylthio)-1-phenyl-1H-indazol-6-yl)azetidine-3-carboxamide hydrochloride]
